Where a name gives a salt, the structure may show the parent alone.
Legend:
plasma cAMP and cGMP = test: Plasma cAMP and cGMP by ELISA in dogs; assay type: in vivo, dog; conditions: for plasma cGMP: normal and HF models, all conditions
Experimental: Blood plasma is obtained from these animals, and cAMP and cGMP are assayed by ELISA.

[1] = system: New Zealand White rabbits; test: Pressure-volume hemodynamics in anesthetized rabbits; assay type: in vivo, rabbit; conditions: for hemodynamic effects: atrially paced
Source text: Cyclic AMP is generated largely by transmembrane adenylyl cyclases activated via stimulatory G protein (Gs), with β-adrenergic, adenosine (primarily […]), glucagon, prostanoids, histamine, and serotonin all coupling to Gs in cardiomyocytes. The present studies focus on beta-adrenergic and adenosine receptors, and for the latter, concentrated on the A2B receptor, which has been reported to directly stimulate cAMP-dependent contractility. […] Relaxation changes are also modest with LV preload (end-diastolic and volume) unaltered; however, the combined vasodilator-inotropic response doubled ventricular/arterial coupling ratio, Ees/Ea.
New Zealand White rabbits (male, 2-3 kg) are sedated with 35 mg/kg ketamine and 5 mg/kg xylazine, intubated and ventilated (Model 683, Harvard Apparatus, Holliston, MA), with anesthesia maintained with isoflurane inhalation (1-2%). A pressure-volume catheter (SPR-894, Millar, Inc., Houston, TX) is inserted via the common carotid artery and advanced to the LV apex, and a 2-Fr pacing catheter is positioned in the right atrium via the right jugular vein to provide atrial pacing. […] The parallel conductance is determined by the hypertonic saline injection method. Rabbits are infused with 6% hetastarch in saline during the procedure to stabilize arterial pressure.

[2] = system: normal adult rabbit myocytes; test: Contraction and calcium transients in isolated rabbit cardiomyocytes; assay type: cell-based; parameters: effect on contraction and calcium transients: dose or concentration left out as unconfirmed
Experimental: To test whether PDE1 inhibition directly impacts cardiomyocyte contraction and calcium transients, studies are carried out on normal adult rabbit myocytes. […] As PDE1 requires sufficient cAMP and Ca^2+ to be impactful, a dose response was performed to the adenylate cyclase activator, forskolin (FSK) to determine the lowest dose producing a modest but significant inotropic effect (1 μM).
Rabbit myocytes were isolated to determine the effect of PDE1 inhibition on cardiomyocyte contraction and whole cell Ca2+ transients, and to compare the results to those with a PDE3 inhibitor, cilostamide (Cil, 1 μM).

[3] = Plasma pharmacokinetics in heart failure patients; assay type: in vivo, human; conditions: 10, 30, 90 mg
Experimental: (§1) A further group was administered placebo.
(§2) Hemodynamic monitoring began 30-60 minutes prior to the pre-dose echocardiogram through to 5-6 hours post-dose.

[4] = system: normal and failing canine hearts; test: Conscious pressure-volume hemodynamic analysis in dogs; assay type: in vivo, dog
Experimental: (§3) Dogs are studied in the conscious state before and after inducing dilated cardiomyopathy by tachypacing for two weeks at 200 bpm.
(§4) The study employs two doses, 0.01 and 0.1 mg/kg, the latter administered 30 minutes after the first.
Load insensitive indexes of contractility (dP/dtmax/IP and PRSW) increased.

[5] = system: patients with stable chronic systolic HF; test: Phase Ib/IIa single ascending dose study in human heart failure; assay type: in vivo
Experimental: as §1, §2
Supine and orthostatic blood pressure and heart rate were recorded pre-dose, as well as 60 and 40 minutes post-dose. Continuous electrocardiographic monitoring starting up to 30-60 minutes prior to the pre-dose echocardiogram through to 5-6 hours post-dose including measurement of ectopic arrhythmias pre- and post-dose.

myocyte cAMP = test: Whole cell cAMP in rabbit myocytes; assay type: cell-based; conditions: for cAMP: added to Fsk; for whole cell cAMP: alone or combined with Iso
Source text: This is consistent with prior studies showing locally generated cAMP from β-AR and its modulation by PDE3 occur in local subcellular domains that are not easily detected in whole cell lysates32.

[6] = Plasma Compound 1 levels in dogs (LC/MS-MS); assay type: in vivo, dog; conditions: normal dogs, 0.1 mg/kg i.v.
Experimental: as §3, §4
Intravenous blood is placed in K2EDTA tubes, centrifuged at 2,000 g for 15 min, plasma decanted, and stored frozen. Compound 1 levels are assessed by a rapid, sensitive liquid chromatography-tandem mass spectrometric (LC/MS-MS) method.
The mobile phase consists of a gradient of 60-100% methanol over 4.5 minutes in 5 mM ammonium bicarbonate with 0.2% NH3H2O, pumped at a flow rate of 0.8 mL/min. Analysis time is 4.5 min and both the analyte and internal standard eluted around 2.0 min. Multiple reactions monitoring (MRM) mode is used to detect Compound 1. MS is operated in the positive ion detection mode. […] Calibration curves are linear from 0.02-500 ng/mL in dog plasma sample matrices. The lower limit of quantification (LLOQ) for plasma was 0.02 ng/mL.

[7] = Compound 1 added after FSK 1 μM
[8] = continuous ECG monitoring to 5-6 hours post-dose

## CN1C(=O)c2c(nn(Cc3ccc(-c4cccc(F)n4)cc3)c2Nc2ccccc2)N2C1=N[C@@H]1CCC[C@@H]12 [Compound 1, (6aR,9aS)-2-(4-(6-fluoropyridin-2-yl)benzyl)-5-methyl-3-(phenyl-amino)-5,6a,7,8,9,9a-hexahydrocyclopenta-[4,5]imidazo[1,2-a]pyrazolo[4,3-e]pyrimidin-4-(2H)-one monophosphate]
Plasma cAMP and cGMP; HF dogs, combination of dobutamine and Compound 1
  plasma cAMP: significantly higher
Plasma cAMP and cGMP
  plasma cGMP: remains unchanged
[1]; 0.1 mg/kg i.v. bolus, alone
  LV preload: unaltered
  cardiac output: increases cardiac output
  heart rate: modestly elevated heart rate
  relaxation changes: modest
  systemic resistance: lowered systemic resistance
  systolic pressure: no change in systolic pressure
[1]; after esmolol
  contractile and vasodilation effects: remain intact
  heart rate: no longer increases HR
[1]; atrially paced at ~20% above sinus node rate
  hemodynamic responses: nearly identical responses
[1]; with MRS-1754
  hemodynamic effects: fully blocked by MRS-1754
[1]; with esmolol
  hemodynamic effects: unaltered by esmolol
[1]; with A2BR blocker MRS-1754
  cardiovascular responses to Compound 1 (heart rate, contractility, vasodilation): eliminated all of the cardiovascular responses
[2]; Compound 1 1 μM alone
  percent sarcomere shortening, peak-Ca2+ transients and decay kinetics: not observed
[2]; Compound 1+FSK vs FSK for identical duration
  rise in sarcomere shortening versus time-control: exceeds that with FSK alone
[2]; [7]
  peak calcium transient: remains unaltered
  shortening and relaxation/calcium decay rates: significantly increases shortening and relaxation/calcium decay rates
[2]; Compound 1 alone
  effect on contraction and calcium transients: no effect
[2]; added to Fsk 1 μM
  Ca2+ transient decay: enhanced the Ca2+ decay rate similarly to Cil
  peak Ca2+ transient: no corresponding increase in peak Ca2+ transient
  sarcomere shortening: rose as with Cil
[2]; added to Iso
  peak-Ca2+: no longer significantly different from pre-Iso baseline
  sarcomere shortening: did not change further
[3]
  area under curve: increasing with dose escalation
[4]; 0.1 mg/kg i.v.
  hemodynamic responses: positive chronotropic, inotropic, lusitropic, and vasodilator responses
[4]; i.v., heart failure dogs
  inotropy, lusitropy and vasodilation: remained significantly improved
[5]; 30 mg
  systemic vascular resistance: greatest decrease
[5]; 30 mg and 90 mg
  effective arterial elastance (Ea): decreased
[5]; all cohorts (10, 30, 90 mg single oral dose)
  systemic vascular resistance: significantly decrease systemic vascular resistance
[5]; all dose amounts, versus placebo
  mean arterial blood pressure: decrease mean arterial blood pressure versus placebo
[5]; [8]
  atrial fibrillation or atrial flutter: none of the patients developed atrial fibrillation or atrial flutter
  sustained supraventricular or ventricular tachycardia: no patient developed sustained supraventricular or ventricular tachycardia
  ventricular proarrhythmia: no evidence of ventricular proarrhythmia
[5]; patients with systolic heart failure (HFrEF)
  safety and tolerability: safe and well tolerated
[5]; throughout the testing period
  blood pressures and heart rates: remained stable
Myocyte cAMP; Compound 1 added to Fsk
  cAMP change as share of the maximal change with IBMX added to Fsk: about half
Myocyte cAMP
  cAMP: substantially increased by adding Compound 1
[6]
  time of peak plasma concentration: within minutes

## CC(C)Cn1c(=O)n(C)c(=O)c2[nH]cnc21 [IBMX, reference compound]
[2]; IBMX 100 μM
  peak calcium transients: did not alter peak calcium transients
  shortening and contraction/calcium decay rates: increased shortening and contraction/calcium decay rates

## CCCn1c(=O)c2[nH]c(-c3ccc(OCC(=O)Nc4ccc(C#N)cc4)cc3)nc2n(CCC)c1=O [MRS-1754, reference compound]
[1]
  impact of inhibitor pre-treatment alone on cardiovascular hemodynamics: Neither inhibitor pre-treatment alone has a significant impact

## CN(C(=O)CCCOc1ccc2[nH]c(=O)ccc2c1)C1CCCCC1 [cilostamide, reference compound]
[2]; Cil 1 μM alone
  percent sarcomere shortening, peak-Ca2+ transients and decay kinetics: rose and their decay kinetics accelerated
[2]; added to Fsk 1 μM
  Ca2+ transient decay: faster decay of the Ca2+ transient
  peak Ca2+ transient: increase
  sarcomere shortening: increase in sarcomere shortening
[2]; added to Iso
  peak-Ca2+: remained elevated over baseline
  sarcomere shortening: further increased sarcomere shortening
Myocyte cAMP
  cAMP: unaltered by addition of Cil
  whole cell cAMP: did not measurably increase whole cell cAMP

## CC(CCc1ccc(O)cc1)NCCc1ccc(O)c(O)c1 (stereo not drawn) [dobutamine, reference compound]
Plasma cAMP and cGMP
  plasma cGMP: remains unchanged
[4]; dobutamine 10 μg/kg/min alone
  PV loop area (stroke work) and contractility: increased PV loop area

## COC(=O)CCc1ccc(OCC(O)CNC(C)C)cc1 (stereo not drawn) [esmolol, esmolol HCl, reference compound]
[1]; esmolol dose as used
  cardiac responses to 10 μg/kg/min dobutamine: effectively blocked cardiac responses
[1]
  impact of inhibitor pre-treatment alone on cardiovascular hemodynamics: Neither inhibitor pre-treatment alone has a significant impact

## CC(C)NCC(O)c1ccc(O)c(O)c1 (stereo not drawn) [isoproterenol, reference compound]
[2]; isoproterenol 50 nM
  sarcomere shortening and peak Ca2+: increases both sarcomere shortening and peak Ca^2+
[2]; non-saturating dose of isoproterenol
  sarcomere shortening, peak-Ca2+ and relaxation times: increased sarcomere shortening and peak-Ca^2+, and quickened relaxation times
Myocyte cAMP
  whole cell cAMP: did not measurably increase whole cell cAMP
